Reference: PubChem BioAssay (NCI)
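Grown in 96-well plates, cells were treated for 48 hours with each compound at five concentrations. Insufficient inhibition: endpoint recorded as highest concentration tested. At the TGI there is no net growth.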

Assays:
Test in all cases: inhibition of tumour cell growth, NCI panel, 48 h
M19-MEL melanoma = test system: M19-MEL melanoma
KM20L2 colon = test system: KM20L2 colon
SNB-78 CNS = test system: SNB-78 CNS
DMS 273 small cell lung = test system: DMS 273 small cell lung
SW-620 colon = test system: SW-620 colon
HOP-18 NSCLC = test system: HOP-18 NSCLC
DLD-1 colon = test system: DLD-1 colon
A498 renal = test system: A498 renal
XF 498 CNS = test system: XF 498 CNS
LXFL 529 NSCLC = test system: LXFL 529 NSCLC
KM12 colon = test system: KM12 colon
RXF-631 renal = test system: RXF-631 renal
DMS 114 small cell lung = test system: DMS 114 small cell lung
MCF7 breast = test system: MCF7 breast
HS 578T breast = test system: HS 578T breast

| SMILES | TGI (M19-MEL melanoma) [µM] | TGI (KM20L2 colon) [µM] | TGI (SNB-78 CNS) [µM] | TGI (DMS 273 small cell lung) [µM] | TGI (SW-620 colon) [µM] | TGI (HOP-18 NSCLC) [µM] | TGI (DLD-1 colon) [µM] | TGI (A498 renal) [µM] | TGI (XF 498 CNS) [µM] | TGI (LXFL 529 NSCLC) [µM] | TGI (KM12 colon) [µM] | TGI (RXF-631 renal) [µM] | TGI (DMS 114 small cell lung) [µM] | TGI (MCF7 breast) [µM] | TGI (HS 578T breast) [µM] |
| --- | --- | --- | --- | --- | --- | --- | --- | --- | --- | --- | --- | --- | --- | --- | --- |
| Cc1ccc(-c2nnc3s/c(=C\c4ccc(N(C)C)cc4)c(=O)n23)cc1 | > 100 | > 100 | > 100 | > 100 | > 100 | > 100 | > 100 | > 100 | > 100 | > 100 | > 100 | > 100 | > 100 |  |  |
| O=C(O)CCN(CCCN(CCC(=O)O)CCC(=O)O)CCC(=O)O | > 100 | > 100 |  | > 100 | > 100 | > 100 | > 100 | > 100 | > 100 | > 100 | > 100 | > 100 | > 100 |  |  |
| NC(N)=NS(=O)(=O)c1ccc(NC(=O)c2cccc3c(N)c4ccccc4nc23)cc1 | > 100 | > 100 | > 100 | > 100 | > 100 |  | > 100 | > 100 | > 100 | > 100 | > 100 | > 100 | > 100 |  |  |
| COc1ccc2c(c1)[n+]([O-])c(/C(C)=N/NC(=O)c1ccccc1O)c(C)[n+]2[O-] | > 100 | > 100 | > 100 |  | > 100 | > 100 | > 100 |  | > 100 | > 100 | > 100 | > 100 | > 100 |  |  |
| CC(C)c1ccc(/C=C/c2cc(C(=O)NNC(=O)NC3CCCCC3)nc(=S)[nH]2)cc1 | > 100 | > 100 | > 100 | > 100 | > 100 | > 100 | > 100 | > 100 | > 100 | > 100 | > 100 | > 100 | > 100 |  |  |
| C/C(=N/O)c1sc(-c2nc(C)c(/C(C)=N\O)s2)nc1C | > 100 | > 100 | > 100 | > 100 | > 100 | > 100 | > 100 | > 100 | > 100 | > 100 |  | > 100 | > 100 |  |  |
| CC(=O)NC1COC(COC(=O)CCCCCCCCCCNC(=O)c2ccc([N+](=O)[O-])c3c(=O)c4ccccc4[nH]c23)C(O)C1OC(C)C(=O)NC(C(=O)NC(CCC(N)=O)C(=O)OCc1ccccc1)C(C)C (stereo not given) | 10.7 | 33.5 | > 22.8 | 27.3 | > 72.8 | 43.9 | 10.1 | 47.7 | 34.8 | > 60.6 | 11.6 | > 100 | 30.4 | 14.8 | 17.6 |
| O=C(CC1(O)C(=O)Nc2c(Cl)cc(Cl)cc21)c1ccc(F)cc1 (stereo not given) | 34 | > 100 | > 100 | > 100 | > 100 | > 100 | > 100 |  | 39.9 | > 100 | > 100 | > 100 | 58.9 |  |  |
